From article PMC6946680, “Modulation of brain cation-Cl^− cotransport via the SPAK kinase inhibitor ZT-1a” (Nature Communications, 2020)

Tests used:
Assay in all cases: Kinase profiling panel
Assay type in all cases: biochemical
ABL = tested on: ABL
Method: (§1) Supplementary Table 2. ZT-1a kinase profiling data6.
(§2) ZT-1a was tested at 10 and 1 µM against a panel of 140 recombinant kinases in an enzymatic
(§3) activity-based assay performed by the International Centre for Kinase Profiling in the MRC
(§4) Protein Phosphorylation and Ubiquitylation Unit. Values represent % residual kinase activity

ASK1 = tested on: ASK1
Method: as §1, §2, §3, §4

Aurora A = tested on: Aurora A
Method: as §1, §2, §3, §4

BRSK1 = tested on: BRSK1
Method: as §1, §2, §3, §4

CAMK1 = tested on: CAMK1
Method: as §1, §2, §3, §4

CAMKKb = tested on: CAMKKb
Method: as §1, §2, §3, §4

CDK2-Cyclin A = tested on: CDK2-Cyclin A
Method: as §1, §2, §3, §4

DDR2 = tested on: DDR2
Method: as §1, §2, §3, §4

DYRK3 = tested on: DYRK3
Method: as §1, §2, §3, §4

EF2K = tested on: EF2K
Method: as §1, §2, §3, §4

ERK2 = tested on: ERK2
Method: as §1, §2, §3, §4

ERK5 = tested on: ERK5
Method: as §1, §2, §3, §4

IKKb = tested on: IKKb
Method: as §1, §2, §3, §4

MAPKAP-K3 = tested on: MAPKAP-K3
Method: as §1, §2, §3, §4

MARK2 = tested on: MARK2
Method: as §1, §2, §3, §4

MLK1 = tested on: MLK1
Method: as §1, §2, §3, §4

MLK3 = tested on: MLK3
Method: as §1, §2, §3, §4

MST4 = tested on: MST4
Method: as §1, §2, §3, §4

NUAK1 = tested on: NUAK1
Method: as §1, §2, §3, §4

PAK2 = tested on: PAK2
Method: as §1, §2, §3, §4

PAK5 = tested on: PAK5
Method: as §1, §2, §3, §4

PIM3 = tested on: PIM3
Method: as §1, §2, §3, §4

PKBa = tested on: PKBa
Method: as §1, §2, §3, §4

PKCa = tested on: PKCa
Method: as §1, §2, §3, §4

PKCγ = tested on: PKCγ
Method: as §1, §2, §3, §4

PLK1 = tested on: PLK1
Method: as §1, §2, §3, §4

RIPK2 = tested on: RIPK2
Method: as §1, §2, §3, §4

RSK2 = tested on: RSK2
Method: as §1, §2, §3, §4

SGK1 = tested on: SGK1
Method: as §1, §2, §3, §4

SIK2 = tested on: SIK2
Method: as §1, §2, §3, §4

SIK3 = tested on: SIK3
Method: as §1, §2, §3, §4

SRPK1 = tested on: SRPK1
Method: as §1, §2, §3, §4

STK33 = tested on: STK33
Method: as §1, §2, §3, §4

SYK = tested on: SYK
Method: as §1, §2, §3, §4

TAK1 = tested on: TAK1
Method: as §1, §2, §3, §4

TBK1 = tested on: TBK1
Method: as §1, §2, §3, §4

TGFBR1 = tested on: TGFBR1
Method: as §1, §2, §3, §4

TSSK1 = tested on: TSSK1
Method: as §1, §2, §3, §4

ULK1 = tested on: ULK1
Method: as §1, §2, §3, §4

ULK2 = tested on: ULK2
Method: as §1, §2, §3, §4

YES1 = tested on: YES1
Method: as §1, §2, §3, §4

ZAP70 = tested on: ZAP70
Method: as §1, §2, §3, §4

p38a MAPK = tested on: p38a MAPK
Method: as §1, §2, §3, §4

p38d MAPK = tested on: p38d MAPK
Method: as §1, §2, §3, §4

SMILES: Cc1cc(C(C#N)c2ccc(Cl)cc2)c(Cl)cc1NC(=O)c1cc(Cl)ccc1O (stereo not shown) [ZT-1a, 5-chloro-N-(5-chloro-4-((4-chlorophenyl)(cyano)methyl)-2-methylphenyl)-2-hydroxybenzamide]
- % residual kinase activity (ABL; 1 µM): 85±4%
- % residual kinase activity (ABL; 10 µM): 68±16%
- % residual kinase activity (ASK1; 1 µM): 101±3%
- % residual kinase activity (ASK1; 10 µM): 100±11%
- % residual kinase activity (Aurora A; 1 µM): 73±19%
- % residual kinase activity (Aurora A; 10 µM): 65±1%
- % residual kinase activity (BRSK1; 1 µM): 108±14%
- % residual kinase activity (BRSK1; 10 µM): 88±22%
- % residual kinase activity (CAMK1; 1 µM): 60±5%
- % residual kinase activity (CAMK1; 10 µM): 71±31%
- % residual kinase activity (CAMKKb; 1 µM): 115±10%
- % residual kinase activity (CAMKKb; 10 µM): 102±9%
- % residual kinase activity (CDK2-Cyclin A; 1 µM): 128±12%
- % residual kinase activity (CDK2-Cyclin A; 10 µM): 125±6%
- % residual kinase activity (DDR2; 1 µM): 111±20%
- % residual kinase activity (DDR2; 10 µM): 99±8%
- % residual kinase activity (DYRK3; 1 µM): 113±6%
- % residual kinase activity (DYRK3; 10 µM): 56±15%
- % residual kinase activity (EF2K; 1 µM): 104±13%
- % residual kinase activity (EF2K; 10 µM): 56±2%
- % residual kinase activity (ERK2; 1 µM): 111±25%
- % residual kinase activity (ERK2; 10 µM): 75±3%
- % residual kinase activity (ERK5; 1 µM): 120±9%
- % residual kinase activity (ERK5; 10 µM): 114±5%
- % residual kinase activity (IKKb; 1 µM): 101±0%
- % residual kinase activity (IKKb; 10 µM): 78±3%
- % residual kinase activity (MAPKAP-K3; 1 µM): 96±26%
- % residual kinase activity (MAPKAP-K3; 10 µM): 72±8%
- % residual kinase activity (MARK2; 1 µM): 103±8%
- % residual kinase activity (MARK2; 10 µM): 89±15%
- % residual kinase activity (MLK1; 1 µM): 94±4%
- % residual kinase activity (MLK1; 10 µM): 81±21%
- % residual kinase activity (MLK3; 1 µM): 119±11%
- % residual kinase activity (MLK3; 10 µM): 114±3%
- % residual kinase activity (MST4; 1 µM): 63±10%
- % residual kinase activity (MST4; 10 µM): 63±0%
- % residual kinase activity (NUAK1; 1 µM): 52±7%
- % residual kinase activity (NUAK1; 10 µM): 61±16%
- % residual kinase activity (PAK2; 1 µM): 110±4%
- % residual kinase activity (PAK2; 10 µM): 93±8%
- % residual kinase activity (PAK5; 1 µM): 93±26%
- % residual kinase activity (PAK5; 10 µM): 93±4%
- % residual kinase activity (PIM3; 1 µM): 115±12%
- % residual kinase activity (PIM3; 10 µM): 99±2%
- % residual kinase activity (PKBa; 1 µM): 104±1%
- % residual kinase activity (PKBa; 10 µM): 91±4%
- % residual kinase activity (PKCa; 1 µM): 97±4%
- % residual kinase activity (PKCa; 10 µM): 83±2%
- % residual kinase activity (PKCγ; 1 µM): 133±11%
- % residual kinase activity (PKCγ; 10 µM): 120±8%
- % residual kinase activity (PLK1; 1 µM): 72±1%
- % residual kinase activity (PLK1; 10 µM): 93±21%
- % residual kinase activity (RIPK2; 1 µM): 128±5%
- % residual kinase activity (RIPK2; 10 µM): 120±3%
- % residual kinase activity (RSK2; 1 µM): 116±5%
- % residual kinase activity (RSK2; 10 µM): 101±3%
- % residual kinase activity (SGK1; 1 µM): 73±14%
- % residual kinase activity (SGK1; 10 µM): 58±5%
- % residual kinase activity (SIK2; 1 µM): 105±16%
- % residual kinase activity (SIK2; 10 µM): 76±8%
- % residual kinase activity (SIK3; 1 µM): 104±9%
- % residual kinase activity (SIK3; 10 µM): 88±0%
- % residual kinase activity (SRPK1; 1 µM): 104±5%
- % residual kinase activity (SRPK1; 10 µM): 73±20%
- % residual kinase activity (STK33; 1 µM): 114±7%
- % residual kinase activity (STK33; 10 µM): 100±5%
- % residual kinase activity (SYK; 1 µM): 93±12%
- % residual kinase activity (SYK; 10 µM): 93±1%
- % residual kinase activity (TAK1; 1 µM): 117±22%
- % residual kinase activity (TAK1; 10 µM): 103±5%
- % residual kinase activity (TBK1; 1 µM): 119±10%
- % residual kinase activity (TBK1; 10 µM): 94±3%
- % residual kinase activity (TGFBR1; 1 µM): 63±9%
- % residual kinase activity (TGFBR1; 10 µM): 77±5%
- % residual kinase activity (TSSK1; 1 µM): 99±2%
- % residual kinase activity (TSSK1; 10 µM): 74±6%
- % residual kinase activity (ULK1; 1 µM): 87±10%
- % residual kinase activity (ULK1; 10 µM): 89±13%
- % residual kinase activity (ULK2; 1 µM): 110±11%
- % residual kinase activity (ULK2; 10 µM): 49±9%
- % residual kinase activity (YES1; 1 µM): 109±3%
- % residual kinase activity (YES1; 10 µM): 98±7%
- % residual kinase activity (ZAP70; 1 µM): 120±1%
- % residual kinase activity (ZAP70; 10 µM): 97±9%
- % residual kinase activity (p38a MAPK; 1 µM): 128±7%
- % residual kinase activity (p38a MAPK; 10 µM): 113±2%
- % residual kinase activity (p38d MAPK; 1 µM): 95±1%
- % residual kinase activity (p38d MAPK; 10 µM): 112±2%
